Reference: ChEMBL document CHEMBL1201862, “PubChem BioAssay data set” (2004)
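Test compounds were applied to cells in 96-well plates for 48 hours at 5 doses. GI50 is the concentration that inhibits growth by half.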 Active and inactive are the calls of the source. No stated cut-off is given here; in the data, active = GI50 up to about 1.1 µM and inactive = higher.

What was measured:
Assay in all cases: DTP human tumour cell line panel, 48 h
[1] = tested on: 786-0
[2] = tested on: EKVX
[3] = tested on: HCC 2998
[4] = tested on: HCT-116
[5] = tested on: HCT-15
[6] = tested on: HOP-92
[7] = tested on: HT-29
[8] = tested on: LOX IMVI
[9] = tested on: MCF7
[10] = tested on: MDA-MB-231
[11] = tested on: Malme-3M
[12] = tested on: NCI-H460
[13] = tested on: NCI/ADR-RES
[14] = tested on: OVCAR-3
[15] = tested on: SF-539
[16] = tested on: SK-MEL-5
[17] = tested on: SNB-19
[18] = tested on: SNB-75
[19] = tested on: UACC-257
[20] = tested on: UACC-62

Q: For `O=C1c2ccccc2C(=O)c2sc(Nc3cc(Cl)ccc3Cl)nc21`, which GI50 [1] is on record?
A: The GI50 was 3.61 µM (inactive).

Q: What about the GI50 [2] of the same molecule?
A: Its GI50 is 12.9 µM (inactive).

Q: And the GI50 [3]?
A: The GI50 was 5.86 µM (inactive).

Q: What about the GI50 [4] of the same molecule?
A: Its GI50 is 3.3 µM (inactive).

Q: And the GI50 [5]?
A: Its GI50 is 2.94 µM.

Q: And the GI50 [6]?
A: The GI50 was 15.1 µM (inactive).

Q: What about the GI50 [7] of the same molecule?
A: The GI50 was 14.1 µM (inactive).

Q: What about the GI50 [8] of the same molecule?
A: The GI50 was 2.28 µM (inactive).

Q: And the GI50 [9]?
A: The GI50 was 1.7 µM (inactive).

Q: What about the GI50 [10] of the same molecule?
A: The GI50 was 1.87 µM (inactive).

Q: What about the GI50 [11] of the same molecule?
A: Its GI50 is 1.44 µM (inactive).

Q: What about the GI50 [12] of the same molecule?
A: The GI50 was 6.68 µM (inactive).

Q: And the GI50 [13]?
A: The GI50 was 2.63 µM (inactive).

Q: What about the GI50 [14] of the same molecule?
A: The GI50 was 0.74 µM (active).

Q: What about the GI50 [15] of the same molecule?
A: Its GI50 is 3.16 µM (inactive).

Q: And the GI50 [16]?
A: The GI50 was 1.53 µM (inactive).

Q: And the GI50 [17]?
A: The GI50 was 14.3 µM (inactive).

Q: And the GI50 [18]?
A: Its GI50 is 15.1 µM (inactive).

Q: And the GI50 [19]?
A: Its GI50 is 2.51 µM (inactive).

Q: What about the GI50 [20] of the same molecule?
A: The GI50 was 2.49 µM (inactive).

Q: How did the GI50 [1] turn out when `COc1ccc(-c2c(C#N)c(=O)nc(SC)n2C2OCC(OC(C)=O)C(OC(C)=O)C2OC(C)=O)cc1` (stereo not given) was run?
A: Its GI50 is > 100 µM (inactive).

Q: What about the GI50 [2] of the same molecule?
A: Its GI50 is 87.5 µM (inactive).

Q: And the GI50 [3]?
A: The GI50 was > 100 µM (inactive).

Q: And the GI50 [4]?
A: The GI50 was 31.6 µM (inactive).

Q: And the GI50 [5]?
A: The GI50 was 34.8 µM.

Q: What about the GI50 [6] of the same molecule?
A: Its GI50 is > 100 µM (inactive).

Q: And the GI50 [7]?
A: Its GI50 is 56 µM (inactive).

Q: And the GI50 [8]?
A: The GI50 was 64.1 µM (inactive).

Q: What about the GI50 [9] of the same molecule?
A: Its GI50 is > 100 µM (inactive).

Q: And the GI50 [10]?
A: Its GI50 is 58.7 µM (inactive).

Q: And the GI50 [11]?
A: Its GI50 is > 100 µM (inactive).

Q: What about the GI50 [12] of the same molecule?
A: Its GI50 is 27.2 µM (inactive).

Q: And the GI50 [13]?
A: Its GI50 is 91.2 µM (inactive).

Q: And the GI50 [14]?
A: The GI50 was > 100 µM (inactive).

Q: What about the GI50 [15] of the same molecule?
A: Its GI50 is > 100 µM (inactive).

Q: And the GI50 [16]?
A: Its GI50 is 45 µM (inactive).

Q: What about the GI50 [17] of the same molecule?
A: Its GI50 is 91.8 µM (inactive).

Q: And the GI50 [18]?
A: Its GI50 is 95.9 µM (inactive).

Q: And the GI50 [19]?
A: Its GI50 is > 100 µM (inactive).

Q: What about the GI50 [20] of the same molecule?
A: Its GI50 is 33.5 µM (inactive).

Q: `c1ccc(N/N=C2\CC(c3ccccc3)Oc3ccccc32)cc1` (stereo not given) was tested. Which GI50 [1] did it give?
A: Its GI50 is 24.3 µM (inactive).

Q: And the GI50 [2]?
A: Its GI50 is 21.9 µM (inactive).

Q: What about the GI50 [3] of the same molecule?
A: Its GI50 is 43.4 µM (inactive).

Q: And the GI50 [4]?
A: Its GI50 is 32.1 µM (inactive).

Q: What about the GI50 [5] of the same molecule?
A: Its GI50 is 31 µM.

Q: And the GI50 [6]?
A: The GI50 was 39.1 µM (inactive).

Q: And the GI50 [7]?
A: The GI50 was 32.4 µM (inactive).

Q: What about the GI50 [8] of the same molecule?
A: The GI50 was 34.2 µM (inactive).

Q: And the GI50 [9]?
A: Its GI50 is 24 µM (inactive).

Q: And the GI50 [10]?
A: Its GI50 is 49.3 µM (inactive).

Q: What about the GI50 [11] of the same molecule?
A: Its GI50 is > 100 µM (inactive).

Q: And the GI50 [12]?
A: Its GI50 is 45 µM (inactive).

Q: And the GI50 [13]?
A: Its GI50 is 43.1 µM (inactive).

Q: And the GI50 [14]?
A: The GI50 was 34.5 µM (inactive).

Q: What about the GI50 [15] of the same molecule?
A: The GI50 was 37.6 µM (inactive).

Q: And the GI50 [16]?
A: The GI50 was 40.8 µM (inactive).

Q: And the GI50 [17]?
A: The GI50 was 35.9 µM (inactive).

Q: What about the GI50 [18] of the same molecule?
A: Its GI50 is 22.9 µM (inactive).

Q: What about the GI50 [19] of the same molecule?
A: Its GI50 is 69.3 µM (inactive).

Q: What about the GI50 [20] of the same molecule?
A: The GI50 was 40.6 µM (inactive).
